# Laboratory results: patent publication US10722529B2, “Modulation of NAD+ metabolic pathways for treatment of disease” (Temple University—Of The Commonwealth System of Higher …, priority 2015, dated 2020)
# “Also recorded” adds a separate entry of the source.
# Legend:
# IDO = settings: cited from earlier work
# SIV = test: Viral load in SIV infected macaques treated with NR (latency reversal); assay type: in vivo, rhesus macaque
# Source text: Four SIV infected macaques were followed over time during chronic infection, two treated with combination anti-retroviral therapy (cART), and two non-treated.
# human monocytes = test: CD16 expression in human monocytes isolated from donor PBMCs in the presence of M-CSF; assay type: cell-based; settings: M-CSF treatment, in vitro
# Source text: FIG. 12 depicts the flow cytometry gating strategy used to separate two CD16 positive monocyte subsets.
# FIG. 14 depicts the mean fluorescent intensity for CD16 expression in human monocytes isolated from donor PBMCs in the presence of M-CSF treatment.
# [1] = test system: kynurenine to tryptophan ratio; test: Plasma kynurenine to tryptophan ratio (KTR) in NR-treated rhesus macaques; assay type: in vivo, rhesus macaque
# Method: FIG. 8A depicts the KTR in SIV infected animals treated with different concentrations of NR. FIG. 8B depicts the KTR in uninfected animals treated with different concentrations of NR.
# (§1) As described herein, an increase in the kynurenine to tryptophan ratios in the SIV macaque model was identified, with a positive correlation with viral load and soluble CD163 in plasma. […] In an effort to modulate the kynurenine pathway, and decrease tryptophan metabolism, a dose escalation study was performed with the NAD salvage pathway precursor, nicotinamide riboside (NR), in SIV infected macaques. […] This monocyte subset has been implicated in the pathogenesis of HIV infection, HAND, as well as other HIV associated comorbidities. […] The regulation of the kynurenine pathway appears to be complex, yet an attractive target for HIV therapeutics. Understanding the mechanism by which HIV modulates the kynurenine pathway could provide new therapeutic targets for the treatment of HIV and HAND.
# Experiments were then conducted to examine if kynurenine to tryptophan ratios of SIV infected macaques correlate with sCD163 plasma level, ATP plasma level, and viral load. ELISA kits were used according to the manufacturer's directions to determine plasma concentrations of sCD163, kynurenine and tryptophan. Plasma ATP levels were analyzed using ATPLite assay. It was determined that kynurenine to tryptophan ratios increased in relations to higher viral loads (r=0.4774; p=0.0028) (FIG. 5A). Further, a positive correlation between kynurenine to tryptophan ratio and sCD163 plasma concentration was observed (r=0.473; p=0.0027) (FIG. 5B).
# [2] = test system: macrophage colony-stimulating factor (M-CSF); test: M-CSF in NR treated macaques; assay type: in vivo, rhesus macaque
# Source text: FIG. 11 depicts experimental results showing that macrophage colony-stimulating factor (M-CSF) is reduced in NR treated macaques.
# NAD+ = NAD+ concentration in PBMC of rhesus macaques treated with increasing NR over 5 weeks; assay type: in vivo, rhesus macaque; settings: SIV infected rhesus macaques, increasing concentrations of NR over a 5 week period
# Method: Peripheral blood mononuclear cells (PBMC) from five seronegative and four seropositive rhesus macaques were lysed and assayed for NAD+ concentration after treatment with increasing concentrations of nicotinamide riboside (NR) over a 5 week period. […] Paired T test and one way ANOVA was performed *P≤0.05; **P≤0.01 n=9.
# Experiments were then conducted to examine the effect of nicotinamide riboside treatment on NAD+ levels in SIV infected animals. Peripheral blood mononuclear cells (PBMC) from five seronegative and four seropositive rhesus macaques were lysed and assayed for NAD+ concentration after treatment with increasing concentrations of nicotinamide riboside (NR) over a 5 week period.
# CD4/CD8 ratio = CD4/CD8 ratio in NR dose escalation study in SIV infected macaques; assay type: in vivo, rhesus macaque; settings: SIV infected animals; highest dose (400 mg/kg)
# Method: as §1
# CD14+/CD16+ monocytes = test: Flow cytometry of CD14/CD16 on PBMC monocytes of NR-treated rhesus macaques; assay type: in vivo, rhesus macaque; settings: for CD16 expression on CD14+ monocytes (FACS dot plots): five seronegative and four seropositive macaques, before vs after NR
# Method: (§2) PBMC from five seronegative and four seropositive rhesus macaques were analyzed after treatment with increasing concentrations of nicotinamide riboside (NR) over a 5-week period.
# PBMC from five seronegative and four seropositive rhesus macaques were stained with antibodies to CD14 and CD16 and analyzed by flow cytometry after treatment with increasing concentrations of NR over a 5-week period. The mean fluorescence intensity (MFI) and percent frequency (% Freq) of CD16 was determined for each animal. […] One-way ANOVA was performed *P≤0.05; **P≤0.01; ***P≤0.001; n=9.
# as §2, with “Experiments were then conducted to examine whether nicotinamide riboside treatment effects CD16 expression on CD14+ monocytes. PBMC” for “PBMC”
# Experiments were then conducted to examine the effects of NR treatment on CD14 and CD16 expression. PBMC from five seronegative and four seropositive rhesus macaques were stained with antibodies to CD14 and CD16 and analyzed by flow cytometry after treatment with increasing concentrations of NR over a 5-week period. The mean fluorescence intensity (MFI) and percent frequency (% Freq) of CD16 was determined for each animal.
# intracellular NAD+ = settings: at micromolar concentrations; cited from earlier work
# CD38 = CD38 (Homo sapiens, UniProt P28907); settings: at micromolar concentrations; cited from earlier work
# HIV/AIDS = settings: prior to the advent of cART; cited from earlier work
# plasma tryptophan = settings: HIV infected subjects, supplementation; cited from earlier work
# [3] = test system: adipose tissue macrophage infiltration; settings: mice; cited from earlier work
# HIV = settings: in vitro and in patients; cited from earlier work
# [4] = listed as nicotinamide riboside
# [5] = uninfected and SIV infected macaques, before vs after NR over 5 weeks
# CD38, sequence (P28907 whole entry, species assumed): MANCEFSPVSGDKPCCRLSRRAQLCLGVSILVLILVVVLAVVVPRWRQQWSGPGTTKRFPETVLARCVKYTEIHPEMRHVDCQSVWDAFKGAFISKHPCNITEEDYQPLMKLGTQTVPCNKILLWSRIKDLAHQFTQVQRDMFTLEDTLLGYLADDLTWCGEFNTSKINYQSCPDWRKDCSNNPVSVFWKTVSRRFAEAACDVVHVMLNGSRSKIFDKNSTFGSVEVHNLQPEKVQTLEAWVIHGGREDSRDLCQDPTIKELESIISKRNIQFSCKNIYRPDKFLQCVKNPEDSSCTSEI
smiles,measurement,setting,value
Cn1cc(C[C@H](N)C(=O)O)c2ccccc21 [1-methyl tryptophan],effect on tryptophan depletion or alterations in the kynurenine pathway,"IDO; SIV/rhesus macaque model, IDO blockade",incapable of affecting
same,disturbance in K/T over-time,IDO; infected animals vs controls,increased the disturbance in K/T over-time in infected animals but not in controls
"NC(=O)c1ccc[n+]([C@@H]2O[C@H](CO)[C@@H](O)[C@H]2O)c1 [NR, nicotinamide riboside]",function as latency reversing agent for SIV infection,SIV; SIV infected rhesus macaques,potential for NR to function as a latency reversing agent; also recorded: may function as a latency reversing agent
same,viral load,"SIV; four SIV infected macaques, chronic infection, two on cART, two non-treated, all treated with NR",evidence for viral load increase in all animals
same,viral load over time,SIV; the animal on cART with the lowest viral load,increase in viral load and then decrease over time
same,CD16 monocyte subset expression,human monocytes,inhibits CD16 monocyte expression induced by M-CSF; also recorded: reduces CD16 monocyte subset expression
same,kynurenine to tryptophan ratio,"[1]; SIV infected animals, 100 mg/kg dose",appeared to increase
same,kynurenine to tryptophan ratio (KTR),"[1]; SIV infected animals, different concentrations of NR",decreased; also recorded: decreases KTR
same,kynurenine to tryptophan ratio (KTR),"[1]; uninfected (seronegative) animals, relative to pretreatment values",no significant impact
same,M-CSF level,[2],reduces M-CSF; also recorded: reduced
same,NAD+ concentration in PBMC,NAD+,significantly increased
same,NAD+ concentration in PBMC,NAD+; [4],increases NAD+ levels
same,CD4/CD8 ratio,CD4/CD8 ratio,decrease CD4/CD8 ratio
same,CD16 expression on CD14+ monocytes (FACS dot plots),CD14+/CD16+ monocytes,decreased in all animals examined
same,CD16 expression on CD14+ monocytes (FACS dot plots),CD14+/CD16+ monocytes; [4],significantly decreases
same,mean fluorescence intensity (MFI) of CD16 on CD14+/CD16+ monocytes,CD14+/CD16+ monocytes; [5],significantly reduced; also recorded: significantly higher than after treatment; also recorded: significantly decreases
same,percent frequency of CD14+/CD16+ monocytes (% Freq of CD16),CD14+/CD16+ monocytes; [5],significantly reduced; also recorded: significantly decreases
O=c1cc(-c2ccc(O)cc2)oc2cc(O)cc(O)c12 [apigenin],intracellular NAD+,intracellular NAD+,increase intracellular NAD+
same,inhibition of CD38 enzyme activity,CD38,inhibit CD38 enzyme activity
O=C(O)c1cccnc1 [niacin],delay of progression of HIV/AIDS,HIV/AIDS,some benefit in delaying the progression of HIV/AIDS
NC(=O)c1cccnc1 [nicotinamide],plasma tryptophan levels,plasma tryptophan,increases plasma tryptophan levels
O=c1c(O)c(-c2ccc(O)c(O)c2)oc2cc(O)cc(O)c12 [quercetin],intracellular NAD+,intracellular NAD+,increase intracellular NAD+
same,inhibition of CD38 enzyme activity,CD38,inhibit CD38 enzyme activity
same,SIRT-1 activity,[3],increased SIRT-1 activity
same,"inflammatory cytokine levels in tissue and sera (TNFα, MCP-1, IL-6)",[3],reduced inflammatory cytokine levels
same,obesity associated adipose tissue macrophage infiltration,[3],reduce obesity associated adipose tissue macrophage infiltration
O=C(CCCCCCC(=O)Nc1ccccc1)NO [vorinostat],latency reversal on repeated dosages,HIV,diminishing returns over time
